Data on seven molecules can be found in ChEMBL document CHEMBL1134018, “Study of aminoglycoside-nucleic acid interactions by an HPLC method” (Bioorg Med Chem Lett, 2001).

The test system of assay [1] is Nucleic Acid. The assay is described as follows: Percent of interaction with calf thymus DNA (activated type XV) at a concentration of 35 uM. It counts as functional. Conditions: Bos taurus.
For assay [2], the system named is Nucleic Acid. As to the kind of experiment: Percent of interaction with wheat germ tRNA (type V) at a concentration of 35 uM. Format: functional. To be noted: Triticum aestivum.

As for `CCN[C@@H]1C[C@H](N)[C@@H](O[C@H]2OC(CN)=CC[C@H]2N)[C@H](O)[C@H]1O[C@H]1OC[C@](C)(O)[C@H](NC)[C@H]1O`, the DNA peak exclusion with Nucleic Acid [1] was found to be 68.8%. Moreover, the tRNA peak exclusion in the assay with Nucleic Acid [2] amounted to 55.1%.

In turn, `CN[C@@H]1[C@H](O[C@H]2[C@H](O[C@H]3[C@H](O)[C@@H](O)[C@H](N=C(N)N)[C@@H](O)[C@@H]3N=C(N)N)O[C@@H](C)[C@]2(O)C=O)O[C@@H](CO)[C@H](O)[C@H]1O` returned a DNA peak exclusion in the assay on Nucleic Acid [1] of 44.3%. In the assay on Nucleic Acid [2], this molecule had a tRNA peak exclusion of 52.5%.

In the assay with Nucleic Acid [1], `NC[C@H]1OC(O[C@H]2[C@H](O)C(O)[C@H](N)C[C@@H]2N)C(N)[C@@H](O)[C@@H]1O` (single isomer, unassigned) displayed a DNA peak exclusion of 40%. The tRNA peak exclusion with Nucleic Acid [2] is 47.3%.

Take `NC[C@@H]1O[C@H](O[C@H]2[C@@H](O)[C@H](O[C@@H]3[C@@H](O)[C@H](N)C[C@H](N)[C@H]3O[C@H]3O[C@H](CN)[C@@H](O)[C@H](O)[C@H]3N)O[C@@H]2CO)[C@H](N)[C@@H](O)[C@@H]1O`: the DNA peak exclusion in the assay on Nucleic Acid [1] came to 100%. The tRNA peak exclusion in the assay with Nucleic Acid [2] is 77.8%.

`NC(Cc1ccccc1)C(=O)NCC1O[C@@H](O[C@@H]2C(N)C[C@@H](N)[C@@H](O)C2O)[C@@H](N)C(O)[C@@H]1O` (stereo partly drawn) displayed a DNA peak exclusion in the assay with Nucleic Acid [1] of 100%. Besides, the tRNA peak exclusion in the assay with Nucleic Acid [2] is 100%.

Molecule `NC[C@@H]1O[C@@H](O[C@H]2[C@H](O)[C@@H](O[C@H]3O[C@H](CO)[C@@H](O)[C@H](N)[C@H]3O)[C@H](N)C[C@@H]2N)[C@@H](O)[C@H](O)[C@H]1O` displayed a DNA peak exclusion with Nucleic Acid [1] of 67.3%. In addition, the tRNA peak exclusion in the assay with Nucleic Acid [2] is 56%.

`NC1C[C@@H](N)C(O)[C@@H](O)[C@@H]1O` (single isomer, unassigned) yielded a tRNA peak exclusion in the assay with Nucleic Acid [2] of 30.3%.
